*1 amine or outer side, *2 acyl side, *3 side chain or, on linkers, in order; H or OH if unused. Where a SMILES comes first, the peptide text is derived from it. Side-chain parts run from the residue outwards. [ ]: non-standard residue; d: D form. The star is where a group is joined. C20 diacid = O=C(O)CCCCCCCCCCCCCCCCCCC(=O)*; C18 diacid = O=C(O)CCCCCCCCCCCCCCCCC(=O)*; αMePhe(2-F) = C[C@](N)(Cc1ccccc1F)C(=O)O; γGlu = O=C(O)[C@H](CCC(=O)[*:2])N[*:1]; AEEA = NCCOCCOCC(=O)O; Aib = CC(C)(N)C(=O)O
Assays:
[1] = biological target: T1, human glucose-dependent insulinotropic peptide receptor (GIPR) (Homo sapiens, UniProt P48546); experiment: cAMP functional assay (HTRF) in HEK293 cells in presence of 0.1% casein; assay type: cell-based; conditions: HEK293 cells expressing human GIPR, geometric mean, read-out: hGIPR cAMP Rel EC50 nM (SEM, n)
T1 construct: expressed in transfected cells; host or cells: HEK293
T1 sequence (P48546 22-466): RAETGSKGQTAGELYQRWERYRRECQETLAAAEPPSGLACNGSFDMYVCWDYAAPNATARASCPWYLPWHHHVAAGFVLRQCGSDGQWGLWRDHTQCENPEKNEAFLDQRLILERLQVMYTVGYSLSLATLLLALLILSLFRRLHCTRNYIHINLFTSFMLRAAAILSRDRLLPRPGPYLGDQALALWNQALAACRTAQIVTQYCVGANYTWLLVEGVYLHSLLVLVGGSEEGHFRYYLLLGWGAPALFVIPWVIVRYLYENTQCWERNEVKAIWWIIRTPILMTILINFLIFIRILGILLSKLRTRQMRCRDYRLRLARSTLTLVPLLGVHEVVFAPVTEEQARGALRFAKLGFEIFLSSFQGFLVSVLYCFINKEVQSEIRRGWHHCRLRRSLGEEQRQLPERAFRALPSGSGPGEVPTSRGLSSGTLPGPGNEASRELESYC

[2] = biological target: T2, human glucagon receptor (GcgR) (Homo sapiens, UniProt P47871); experiment: as above; assay type: cell-based; conditions: HEK293 cells expressing human GcgR, geometric mean, read-out: hGcgR cAMP Rel EC50 nM (SEM, n)
T2 construct: expressed in transfected cells; host or cells: HEK293
T2 sequence (P47871 26-477): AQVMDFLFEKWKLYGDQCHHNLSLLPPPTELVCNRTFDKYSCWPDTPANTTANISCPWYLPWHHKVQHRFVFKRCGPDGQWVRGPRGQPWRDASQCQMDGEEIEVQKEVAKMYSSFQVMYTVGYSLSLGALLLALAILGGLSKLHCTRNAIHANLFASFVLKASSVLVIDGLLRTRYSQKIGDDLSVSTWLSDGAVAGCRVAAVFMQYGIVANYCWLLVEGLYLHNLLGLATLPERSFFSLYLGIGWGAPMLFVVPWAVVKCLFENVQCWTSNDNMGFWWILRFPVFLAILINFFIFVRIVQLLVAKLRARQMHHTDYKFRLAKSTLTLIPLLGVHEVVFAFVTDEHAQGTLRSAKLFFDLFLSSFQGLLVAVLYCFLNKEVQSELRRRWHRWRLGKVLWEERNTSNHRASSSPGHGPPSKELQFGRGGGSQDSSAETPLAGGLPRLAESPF

Compound | EC50 [1] | EC50 [2]
CC[C@H](C)[C@H](NC(=O)[C@H](CO)NC(=O)[C@H](Cc1ccc(O)cc1)NC(=O)[C@H](CC(=O)O)NC(=O)[C@H](CO)NC(=O)[C@@H](NC(=O)[C@](C)(Cc1ccccc1F)NC(=O)[C@@H](NC(=O)CNC(=O)[C@H](CCC(=O)O)NC(=O)C(C)(C)NC(=O)[C@@H](N)Cc1ccc(O)cc1)[C@@H](C)O)[C@@H](C)CC)C(=O)N[C@@H](C)C(=O)N[C@@H](CC(C)C)C(=O)N[C@@H](CC(=O)O)C(=O)N[C@@H](CCCCN)C(=O)N[C@@H](CCCCNC(=O)COCCOCCNC(=O)COCCOCCNC(=O)CC[C@H](NC(=O)CCCCCCCCCCCCCCCCCCC(=O)O)C(=O)O)C(=O)N[C@@H](Cc1c[nH]cn1)C(=O)N[C@@H](CCC(N)=O)C(=O)NC(C)(C)C(=O)N[C@@H](CCC(=O)O)C(=O)N[C@@H](Cc1ccccc1)C(=O)N[C@H](C(=O)N[C@@H](CC(N)=O)C(=O)N[C@@H](Cc1c[nH]c2ccccc12)C(=O)N[C@@H](CC(C)C)C(=O)N[C@@H](CC(C)C)C(=O)N[C@@H](C)C(=O)NCC(=O)NCC(=O)N1CCC[C@H]1C(=O)N[C@@H](CO)C(=O)N[C@@H](CO)C(=O)NCC(=O)N[C@@H](C)C(=O)N1CCC[C@H]1C(=O)N1CCC[C@H]1C(=O)N1CCC[C@H]1C(=O)N[C@@H](CO)C(N)=O)C(C)C [Example 26] (H-Y[Aib]EGT[αMePhe(2-F)]ISDYSIALDKK([AEEA-AEEA-γGlu-C20 diacid])HQ[Aib]EFVNWLLAGGPSSGAPPPS-NH2) | 0.00991 nM | > 5000 nM
CC[C@H](C)[C@H](NC(=O)[C@H](CO)NC(=O)[C@H](Cc1ccc(O)cc1)NC(=O)[C@H](CC(=O)O)NC(=O)[C@H](CO)NC(=O)[C@@H](NC(=O)[C@H](Cc1ccccc1)NC(=O)[C@@H](NC(=O)CNC(=O)[C@H](CCC(=O)O)NC(=O)[C@@H](C)NC(=O)[C@@H](N)Cc1ccc(O)cc1)[C@@H](C)O)[C@@H](C)CC)C(=O)N[C@@H](CC(C)C)C(=O)N[C@@H](CC(C)C)C(=O)N[C@@H](CC(=O)O)C(=O)N[C@@H](CCCCN)C(=O)N[C@@H](CCCCNC(=O)COCCOCCNC(=O)COCCOCCNC(=O)CC[C@H](NC(=O)CCCCCCCCCCCCCCCCC(=O)O)C(=O)O)C(=O)N[C@@H](C)C(=O)N[C@@H](CCC(N)=O)C(=O)NC(C)(C)C(=O)N[C@@H](CCC(=O)O)C(=O)N[C@@H](Cc1ccccc1)C(=O)N[C@H](C(=O)N[C@@H](CCC(N)=O)C(=O)N[C@@H](Cc1c[nH]c2ccccc12)C(=O)N[C@@H](CC(C)C)C(=O)N[C@@H](CC(C)C)C(=O)N[C@@H](C)C(=O)NCC(=O)NCC(=O)N1CCC[C@H]1C(=O)N[C@@H](CO)C(=O)N[C@@H](CO)C(=O)NCC(=O)N[C@@H](C)C(=O)N1CCC[C@H]1C(=O)N1CCC[C@H]1C(=O)N1CCC[C@H]1C(=O)N[C@@H](CO)C(N)=O)C(C)C [Example 27] (H-Y[dA]EGTFISDYSILLDKK([AEEA-AEEA-γGlu-C18 diacid])AQ[Aib]EFVQWLLAGGPSSGAPPPS-NH2) | 0.0132 nM | > 5000 nM
CC[C@H](C)[C@H](NC(=O)[C@H](CO)NC(=O)[C@H](Cc1ccc(O)cc1)NC(=O)[C@H](CC(=O)O)NC(=O)[C@H](CO)NC(=O)[C@@H](NC(=O)[C@H](Cc1ccccc1)NC(=O)[C@@H](NC(=O)CNC(=O)[C@H](CCC(=O)O)NC(=O)[C@@H](C)NC(=O)[C@@H](N)Cc1ccc(O)cc1)[C@@H](C)O)[C@@H](C)CC)C(=O)N[C@@H](CC(C)C)C(=O)N[C@@H](CC(C)C)C(=O)N[C@@H](CC(=O)O)C(=O)N[C@@H](CCCCN)C(=O)N[C@@H](CCCCNC(=O)COCCOCCNC(=O)COCCOCCNC(=O)CC[C@H](NC(=O)CCCCCCCCCCCCCCCCC(=O)O)C(=O)O)C(=O)N[C@@H](C)C(=O)N[C@@H](CCC(N)=O)C(=O)NC(C)(C)C(=O)N[C@@H](CCC(=O)O)C(=O)N[C@@H](Cc1ccccc1)C(=O)N[C@H](C(=O)N[C@@H](CC(N)=O)C(=O)N[C@@H](Cc1c[nH]c2ccccc12)C(=O)N[C@@H](CC(C)C)C(=O)N[C@@H](CC(C)C)C(=O)N[C@@H](CCC(=O)O)C(=O)NCC(=O)NCC(=O)N1CCC[C@H]1C(=O)N[C@@H](CO)C(=O)N[C@@H](CO)C(=O)NCC(=O)N[C@@H](C)C(=O)N1CCC[C@H]1C(=O)N1CCC[C@H]1C(=O)N1CCC[C@H]1C(=O)N[C@@H](CO)C(N)=O)C(C)C [Example 28] (H-Y[dA]EGTFISDYSILLDKK([AEEA-AEEA-γGlu-C18 diacid])AQ[Aib]EFVNWLLEGGPSSGAPPPS-NH2) | 0.0118 nM | > 5000 nM
CC[C@H](C)[C@H](NC(=O)[C@H](CO)NC(=O)[C@H](Cc1ccc(O)cc1)NC(=O)[C@H](CC(=O)O)NC(=O)[C@H](CO)NC(=O)[C@@H](NC(=O)[C@H](Cc1ccccc1)NC(=O)[C@@H](NC(=O)CNC(=O)[C@H](CCC(=O)O)NC(=O)[C@@H](C)NC(=O)[C@@H](N)Cc1ccc(O)cc1)[C@@H](C)O)[C@@H](C)CC)C(=O)N[C@@H](CC(C)C)C(=O)N[C@@H](CC(C)C)C(=O)N[C@@H](CC(=O)O)C(=O)N[C@@H](CCCCN)C(=O)N[C@@H](CCCCNC(=O)COCCOCCNC(=O)COCCOCCNC(=O)CC[C@H](NC(=O)CCCCCCCCCCCCCCCCC(=O)O)C(=O)O)C(=O)N[C@@H](C)C(=O)N[C@@H](CCC(N)=O)C(=O)NC(C)(C)C(=O)N[C@@H](CCC(=O)O)C(=O)N[C@@H](Cc1ccccc1)C(=O)N[C@H](C(=O)N[C@@H](CCC(=O)O)C(=O)N[C@@H](Cc1c[nH]c2ccccc12)C(=O)N[C@@H](CC(C)C)C(=O)N[C@@H](CC(C)C)C(=O)N[C@@H](C)C(=O)NCC(=O)NCC(=O)N1CCC[C@H]1C(=O)N[C@@H](CO)C(=O)N[C@@H](CO)C(=O)NCC(=O)N[C@@H](C)C(=O)N1CCC[C@H]1C(=O)N1CCC[C@H]1C(=O)N1CCC[C@H]1C(=O)N[C@@H](CO)C(N)=O)C(C)C [Example 29] (H-Y[dA]EGTFISDYSILLDKK([AEEA-AEEA-γGlu-C18 diacid])AQ[Aib]EFVEWLLAGGPSSGAPPPS-NH2) | 0.00679 nM | > 5000 nM
CC[C@H](C)[C@H](NC(=O)[C@H](CO)NC(=O)[C@H](Cc1ccc(O)cc1)NC(=O)[C@H](CC(=O)O)NC(=O)[C@H](CO)NC(=O)[C@@H](NC(=O)[C@](C)(Cc1ccccc1F)NC(=O)[C@@H](NC(=O)CNC(=O)[C@H](CCC(=O)O)NC(=O)[C@H](C)NC(=O)[C@@H](Cc1ccc(O)cc1)NC(C)=O)[C@@H](C)O)[C@@H](C)CC)C(=O)N[C@@H](C)C(=O)N[C@@H](CC(C)C)C(=O)N[C@@H](CC(=O)O)C(=O)N[C@@H](CCCCN)C(=O)N[C@@H](CCCCNC(=O)COCCOCCNC(=O)COCCOCCNC(=O)CC[C@H](NC(=O)CCCCCCCCCCCCCCCCC(=O)O)C(=O)O)C(=O)N[C@@H](Cc1c[nH]cn1)C(=O)N[C@@H](CCC(N)=O)C(=O)NC(C)(C)C(=O)N[C@@H](CCC(=O)O)C(=O)N[C@@H](Cc1ccccc1)C(=O)N[C@H](C(=O)N[C@@H](CC(N)=O)C(=O)N[C@@H](Cc1ccc(O)cc1)C(=O)N[C@@H](CC(C)C)C(=O)N[C@@H](CC(C)C)C(=O)N[C@@H](C)C(=O)NCC(=O)NCC(=O)N1CCC[C@H]1C(=O)N[C@@H](CO)C(=O)N[C@@H](CO)C(=O)NCC(=O)N[C@@H](C)C(=O)N1CCC[C@H]1C(=O)N1CCC[C@H]1C(=O)N1CCC[C@H]1C(=O)N[C@@H](CO)C(N)=O)C(C)C [Example 30] (Ac-[dY]AEGT[αMePhe(2-F)]ISDYSIALDKK([AEEA-AEEA-γGlu-C18 diacid])HQ[Aib]EFVNYLLAGGPSSGAPPPS-NH2) | 0.00572 nM | > 5000 nM
CC[C@H](C)[C@H](NC(=O)[C@H](CO)NC(=O)[C@H](Cc1ccc(O)cc1)NC(=O)[C@H](CC(=O)O)NC(=O)[C@H](CO)NC(=O)[C@@H](NC(=O)[C@H](Cc1ccccc1)NC(=O)[C@@H](NC(=O)CNC(=O)[C@H](CCC(=O)O)NC(=O)C(C)(C)NC(=O)[C@@H](N)Cc1ccc(O)cc1)[C@@H](C)O)[C@@H](C)CC)C(=O)N[C@@H](CC(C)C)C(=O)N[C@@H](CC(C)C)C(=O)N[C@@H](CC(=O)O)C(=O)N[C@@H](CCCCN)C(=O)N[C@@H](CCCCNC(=O)COCCOCCNC(=O)COCCOCCNC(=O)CC[C@H](NC(=O)CCCCCCCCCCCCCCCCC(=O)O)C(=O)O)C(=O)N[C@@H](Cc1c[nH]cn1)C(=O)N[C@@H](CCC(N)=O)C(=O)NC(C)(C)C(=O)N[C@@H](CC(=O)O)C(=O)N[C@@H](Cc1ccccc1)C(=O)N[C@H](C(=O)N[C@@H](CC(N)=O)C(=O)N[C@@H](Cc1ccc(O)cc1)C(=O)N[C@@H](CC(C)C)C(=O)N[C@@H](CC(C)C)C(=O)N[C@@H](C)C(=O)N[C@@H](C)C(=O)NCC(=O)N1CCC[C@H]1C(=O)N[C@@H](CO)C(=O)N[C@@H](CO)C(=O)NCC(=O)N[C@@H](C)C(=O)N1CCC[C@H]1C(=O)N1CCC[C@H]1C(=O)N1CCC[C@H]1C(=O)N[C@@H](CO)C(N)=O)C(C)C [Example 31] (H-Y[Aib]EGTFISDYSILLDKK([AEEA-AEEA-γGlu-C18 diacid])HQ[Aib]DFVNYLLAAGPSSGAPPPS-NH2) | 0.0148 nM | 1750 nM

Source: patent US12723063B2, “GIPR-agonist compounds” (Eli Lilly and Company, priority 2019, dated 2026)
